Experimental data: PMC7710018, “Restoration of motor learning in a mouse model of Rett syndrome following long-term treatment with a novel small-molecule activator of TrkB” (Disease Models & Mechanisms, 2020)
Read-outs that look alike come from different tables or passages of the source.

Assays:
5-HT3 (h) = target: T1, 5-HT3 (h) (Homo sapiens, UniProt P46098); assay: Cerep ExpresSProfile radioligand binding; conditions: 10 micromolar, antagonist radioligand
T1 construct: Cerep, Inc. (contract screen)
T1 sequence (P46098 24-478): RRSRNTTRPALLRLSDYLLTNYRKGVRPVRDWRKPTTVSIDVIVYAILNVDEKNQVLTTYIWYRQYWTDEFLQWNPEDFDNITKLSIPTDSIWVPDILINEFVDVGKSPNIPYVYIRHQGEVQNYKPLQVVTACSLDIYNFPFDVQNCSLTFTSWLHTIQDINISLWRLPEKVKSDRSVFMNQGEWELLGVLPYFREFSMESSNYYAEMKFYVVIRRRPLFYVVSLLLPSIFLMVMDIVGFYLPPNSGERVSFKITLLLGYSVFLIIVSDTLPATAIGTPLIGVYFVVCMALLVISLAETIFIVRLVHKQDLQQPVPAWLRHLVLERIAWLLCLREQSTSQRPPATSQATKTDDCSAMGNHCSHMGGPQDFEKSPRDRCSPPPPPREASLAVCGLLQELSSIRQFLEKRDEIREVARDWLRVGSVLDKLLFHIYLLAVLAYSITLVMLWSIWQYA
Method: (§1) To evaluate the relative binding specificity of LM22A-4 ([Massa et al., 2010]) and PTX-BD4-3, binding to a broad range of 55 pharmacologically relevant receptors, including numerous neurotransmitter and G-protein coupled receptors was assessed using standard radioligand competition binding assays (ExpressSProfile) performed by Cerep, Inc. (Seattle, WA, USA). In addition, ADME-Tox analysis was performed by Cerep, Inc. All experimental conditions are described on the Cerep website (www.cerep.fr). […]
(§2) Table S1. In vitro binding assays. An ExpresSProfile screen of PTX-BD4-3 binding to a panel of pharmacologically relevant receptors was conducted by Cerep, Inc.
(§3) (Eurofins Panlabs, MO). The results are expressed as percent inhibition of control specific binding obtained in the presence of 10 micromolar PTX-BD4-3. In this assay, values below 50% indicate no specific binding of PTX-BD4-3. The assay was negative for PTX-BD4-3 binding to all of the 55 receptors in the screen.
(§4) (also on this page, place not known: 2B 5‐HT 3 5‐HT 5a 5‐HT 6 5‐HT 7 (agonis t VPAC 1 V 1 Ca 2+ K V SK Ca Na + Cl ‐ 5‐HT Disease Models & Mechanisms: doi:10.1242/dmm.044685: Supplementary information Disease Models & Mechanisms • Supplementary information)

5-HT7 (h) = target: T2, 5-HT7 (h) (Homo sapiens, UniProt P34969); assay: Cerep ExpresSProfile radioligand binding; conditions: 10 micromolar, agonist radioligand
T2 construct: Cerep, Inc. (contract screen)
Method: as §1, §2, §3, §4

H2 (h) = target: T3, H2 (h) (Homo sapiens, UniProt P25021); assay: Cerep ExpresSProfile radioligand binding; conditions: 10 micromolar; antagonist radioligand; read-out: % Inhibition of Control Specific Binding 1st
T3 construct: purchased Cerep (ExpresSProfile)
Method: as §1, §2, §3, §4

KV channel = assay: Cerep ExpresSProfile radioligand binding; conditions: 10 micromolar; antagonist radioligand
Method: as §1, §2, §3, §4

M3 (h) = target: T4, M3 (h) (Homo sapiens, UniProt P20309); assay: Cerep ExpresSProfile radioligand binding; conditions: 10 micromolar; antagonist radioligand; read-out: % Inhibition of Control Specific Binding 2nd
T4 construct: purchased Cerep (ExpresSProfile)
Method: as §1, §2, §3, §4

Na+ channel (site 2) = assay: Cerep ExpresSProfile radioligand binding; conditions: 10 micromolar; antagonist radioligand
Method: as §1, §2, §3, §4

dopamine transporter (h) = target: T5, dopamine transporter (h) (Homo sapiens, UniProt Q01959); assay: Cerep ExpresSProfile radioligand binding; conditions: 10 micromolar, antagonist radioligand
T5 construct: Cerep, Inc. (contract screen)
Method: as §1, §2, §3, §4

sst (non-selective) = assay: Cerep ExpresSProfile radioligand binding; conditions: 10 micromolar; agonist radioligand
Method: as §1, §2, §3, §4

β1 (h) = target: T6, β1 (h) (Homo sapiens, UniProt P08588); assay: Cerep ExpresSProfile radioligand binding; conditions: 10 micromolar; agonist radioligand; read-out: % Inhibition of Control Specific Binding 1st
T6 construct: purchased Cerep (ExpresSProfile)
Method: as §1, §2, §3, §4

δ2 (DOP) (h) = target: T7, δ2 (DOP) (h) (Homo sapiens, UniProt P41143); assay: Cerep ExpresSProfile radioligand binding; conditions: 10 micromolar; agonist radioligand; read-out: % Inhibition of Control Specific Binding 2nd
T7 construct: purchased Cerep (ExpresSProfile)
Method: as §1, §2, §3, §4

[1] = test system: heterozygous (Het) female Mecp2 mutant mice; assay: Whole-body plethysmography (apnea index); type: in vivo, mouse
Method: Small-molecule compounds were diluted in saline and delivered by i.p. injection. To define the acute effects of single drug treatments, behavioral testing was initiated 1 h after dosing. Durable effects of single drug treatments were evaluated 24 h after dosing. To define the effects of repeated dosing, mice were treated once every 3 days (q72 h) for 4 or 8 weeks, and behavioral testing was performed 24 h after the last dose.
Breathing was recorded in unrestrained Wt and Het mice using a whole-body plethysmograph (EMMS Systems), in which a constant bias flow supply connected to the animal recording chamber ensured continuous inflow of fresh air (1 l/min) and ambient temperature was maintained between 23°C and 25°C. Animals were allowed to acclimate in the recording chambers for 30 min, and respiratory data were collected for the next 3 h. Because respiration is strongly influenced by behavioral state, data were only analyzed from periods of quiet breathing, which was defined as periods when the animal was not moving and had all four paws on the chamber floor. In most experiments, aggregated episodes of quiet breathing totaling at least 10 min were used for analysis. […] Apneas were defined as breathing pauses longer than 2× the average total breath duration (Ttot) measured during quiet breathing and are reported here as apneas/min (apnea index).

[2] = test system: heterozygous (Het) female Mecp2 mutant mice; assay: Forelimb grip strength; type: in vivo, mouse; conditions: chronic intermittent 5 mg/kg q72 h
Method: This improvement is consistent with previous reports of motor learning in response to repeated exposure to Rotarod testing ([Buitrago et al., 2004]). […] To investigate this possibility, we evaluated Rotarod performance in additional cohorts of animals that received chronic intermittent dosing with PTX-BD4-3 and only one exposure to Rotarod testing, at the end of the 8-week treatment period (Fig. 7A).
Fig. 7. […] (A) Repeated dosing with PTX-BD4-3 (5 mg/kg, q72 h) for 8 weeks had no impact on latency to fall in animals that were tested only at the end of the 8-week treatment period. Rotarod performance was measured over three successive trials, 24 h after the last dose. n=15-16 subjects derived from two independent experiments. (B) Het mice show no deficit in forelimb grip strength compared to Wt controls, and no increase in grip strength in response to treatment with PTX-BD4-3. n=9-20 subjects derived from two independent experiments. *P<0.05, **P<0.001 compared to saline-treated Wt mice. One-way ANOVA with LSD post hoc analysis. Black, saline-treated Wt mice; gray, saline-treated Het mice; red, PTX-BD4-3-treated Het mice.

[3] = read-out: % Inhibition of Control Specific Binding 1st
[4] = read-out: % Inhibition of Control Specific Binding 2nd
[5] = read-out: % Inhibition of Control Specific Binding Mean

T2 sequence (P34969 whole entry): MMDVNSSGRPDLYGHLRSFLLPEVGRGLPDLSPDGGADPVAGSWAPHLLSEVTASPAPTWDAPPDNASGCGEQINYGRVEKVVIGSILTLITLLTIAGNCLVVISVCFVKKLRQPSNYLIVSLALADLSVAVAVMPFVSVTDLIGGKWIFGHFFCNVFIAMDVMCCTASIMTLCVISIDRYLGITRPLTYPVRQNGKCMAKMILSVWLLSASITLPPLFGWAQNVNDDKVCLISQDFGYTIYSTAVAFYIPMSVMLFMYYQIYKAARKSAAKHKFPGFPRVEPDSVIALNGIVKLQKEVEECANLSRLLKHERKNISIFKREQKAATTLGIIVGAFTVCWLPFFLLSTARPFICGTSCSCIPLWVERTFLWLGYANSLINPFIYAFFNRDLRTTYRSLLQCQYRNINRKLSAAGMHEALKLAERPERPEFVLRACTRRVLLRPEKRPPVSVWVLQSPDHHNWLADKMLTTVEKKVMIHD
T5 sequence (Q01959 whole entry): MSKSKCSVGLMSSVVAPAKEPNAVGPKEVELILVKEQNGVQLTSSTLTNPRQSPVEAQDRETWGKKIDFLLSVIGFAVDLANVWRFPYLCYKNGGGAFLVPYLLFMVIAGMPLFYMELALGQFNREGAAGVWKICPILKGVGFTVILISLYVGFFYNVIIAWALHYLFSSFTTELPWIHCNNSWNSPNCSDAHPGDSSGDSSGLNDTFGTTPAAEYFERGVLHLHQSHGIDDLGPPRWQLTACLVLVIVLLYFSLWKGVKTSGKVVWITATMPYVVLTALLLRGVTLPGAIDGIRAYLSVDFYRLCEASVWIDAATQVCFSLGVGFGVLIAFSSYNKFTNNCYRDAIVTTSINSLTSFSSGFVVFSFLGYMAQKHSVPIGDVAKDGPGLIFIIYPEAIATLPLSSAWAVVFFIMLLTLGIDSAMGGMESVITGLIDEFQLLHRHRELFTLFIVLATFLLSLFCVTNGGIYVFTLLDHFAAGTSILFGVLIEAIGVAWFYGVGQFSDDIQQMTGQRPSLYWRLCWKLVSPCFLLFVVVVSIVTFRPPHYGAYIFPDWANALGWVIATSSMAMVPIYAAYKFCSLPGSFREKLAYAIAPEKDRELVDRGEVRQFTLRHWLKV
T7 sequence (P41143 whole entry): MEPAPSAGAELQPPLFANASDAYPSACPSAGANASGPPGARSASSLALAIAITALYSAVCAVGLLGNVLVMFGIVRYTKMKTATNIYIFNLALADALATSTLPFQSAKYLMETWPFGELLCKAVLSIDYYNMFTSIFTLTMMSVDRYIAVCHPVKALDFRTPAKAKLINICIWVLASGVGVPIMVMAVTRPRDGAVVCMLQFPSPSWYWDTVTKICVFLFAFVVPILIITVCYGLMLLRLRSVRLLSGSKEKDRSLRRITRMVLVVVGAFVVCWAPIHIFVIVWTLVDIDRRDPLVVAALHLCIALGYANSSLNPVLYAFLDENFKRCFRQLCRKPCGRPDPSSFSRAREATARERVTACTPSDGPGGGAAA
T3 sequence (P25021 whole entry): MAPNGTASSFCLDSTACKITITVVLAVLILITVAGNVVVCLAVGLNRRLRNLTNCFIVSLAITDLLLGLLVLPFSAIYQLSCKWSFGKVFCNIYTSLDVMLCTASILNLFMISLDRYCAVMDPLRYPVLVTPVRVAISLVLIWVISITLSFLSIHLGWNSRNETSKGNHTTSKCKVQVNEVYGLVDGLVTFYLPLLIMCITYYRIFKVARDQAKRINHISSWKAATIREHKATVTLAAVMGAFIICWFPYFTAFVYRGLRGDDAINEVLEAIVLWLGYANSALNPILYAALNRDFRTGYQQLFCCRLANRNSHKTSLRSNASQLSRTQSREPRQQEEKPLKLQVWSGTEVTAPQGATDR
T6 sequence (P08588 whole entry): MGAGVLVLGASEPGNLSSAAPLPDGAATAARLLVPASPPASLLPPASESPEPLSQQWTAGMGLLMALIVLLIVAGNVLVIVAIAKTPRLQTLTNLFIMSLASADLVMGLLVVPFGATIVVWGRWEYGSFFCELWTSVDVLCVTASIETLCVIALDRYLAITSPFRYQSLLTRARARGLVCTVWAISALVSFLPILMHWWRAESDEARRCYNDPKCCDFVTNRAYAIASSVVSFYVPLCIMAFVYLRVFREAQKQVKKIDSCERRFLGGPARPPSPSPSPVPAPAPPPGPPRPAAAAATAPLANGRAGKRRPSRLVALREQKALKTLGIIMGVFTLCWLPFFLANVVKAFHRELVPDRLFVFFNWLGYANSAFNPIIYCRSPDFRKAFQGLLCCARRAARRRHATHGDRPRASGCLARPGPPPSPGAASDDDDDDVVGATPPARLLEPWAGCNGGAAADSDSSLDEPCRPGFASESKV
T4 sequence (P20309 whole entry): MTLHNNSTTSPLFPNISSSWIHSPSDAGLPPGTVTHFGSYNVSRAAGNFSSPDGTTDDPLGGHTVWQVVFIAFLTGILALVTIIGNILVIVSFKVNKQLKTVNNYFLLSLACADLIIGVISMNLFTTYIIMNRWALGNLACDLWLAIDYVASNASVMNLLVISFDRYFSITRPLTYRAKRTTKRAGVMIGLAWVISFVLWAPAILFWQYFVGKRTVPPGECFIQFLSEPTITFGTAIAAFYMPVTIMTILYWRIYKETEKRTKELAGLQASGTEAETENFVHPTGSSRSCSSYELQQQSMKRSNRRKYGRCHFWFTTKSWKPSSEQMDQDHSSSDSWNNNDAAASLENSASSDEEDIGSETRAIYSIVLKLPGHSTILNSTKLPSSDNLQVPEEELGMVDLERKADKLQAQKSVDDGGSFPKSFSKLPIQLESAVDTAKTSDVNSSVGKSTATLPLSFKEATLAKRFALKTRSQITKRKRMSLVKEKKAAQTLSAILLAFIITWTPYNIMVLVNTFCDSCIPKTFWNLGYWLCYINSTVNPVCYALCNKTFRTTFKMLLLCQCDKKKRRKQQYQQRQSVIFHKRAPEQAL

`COCCN(C)C(=O)c1cc(C(=O)N(C)CCOC)cc(C(=O)N(C)CCOC)c1` [PTX-BD4-3, benzene-1,3,5-tricarboxylic acid tris-[(2-methoxy-ethyl)-methyl-amide]] gave an inhibition at 10 µM (5-HT3 (h); [3]) of 6.9%, an inhibition at 10 µM (5-HT3 (h); [4]) of 13.4% and an inhibition at 10 µM (5-HT3 (h); [5]) of 10.1%. For the same compound, the inhibition at 10 µM (5-HT7 (h); [3]) was 8.1%, the inhibition at 10 µM (5-HT7 (h); [4]) was 14.7% and the inhibition at 10 µM (5-HT7 (h); [5]) was 11.4%. The inhibition at 10 µM (H2 (h)) was 2.8%, the “% Inhibition of Control Specific Binding 1st” value (KV channel) was 6.4% and the inhibition at 10 µM (M3 (h)) was 0.8%. The “% Inhibition of Control Specific Binding 1st” value (Na+ channel (site 2)) was 0.6%, the “% Inhibition of Control Specific Binding 2nd” value (Na+ channel (site 2)) was 11.7% and the “% Inhibition of Control Specific Binding Mean” value (Na+ channel (site 2)) was 6.1%. The inhibition at 10 µM (dopamine transporter (h); [3]) was 2.2%, the inhibition at 10 µM (dopamine transporter (h); [4]) was 0.9% and the inhibition at 10 µM (dopamine transporter (h); [5]) was 1.6%. For the same compound, the “% Inhibition of Control Specific Binding 1st” value (sst (non-selective)) was 5.7%, the “% Inhibition of Control Specific Binding Mean” value (sst (non-selective)) was 0.3% and the inhibition at 10 µM (β1 (h)) was 3.7%. For the same compound, the inhibition at 10 µM (δ2 (DOP) (h)) was 1.9%, the apnea index ([1]; Het mice, 5 mg/kg i.p. q72 h for 4 weeks, 24 h after last dose, vs saline-treated Het) was “significantly reduced” and the apnea index ([1]; Het mice, 5 mg/kg i.p. q72 h for 8 weeks, 24 h after last dose, vs saline-treated Het) was “significantly reduced”. The apnea index ([1]; single dose 5 mg/kg i.p., drug-naïve mice at 24 weeks of age, 24 h after dosing) was “no change” and the forelimb grip strength [2] was “no gain in grip strength”.
